Marks after values point to notes of the source that are not given here. Square brackets hold non-standard residues; d marks the D form. Peptide text beside a SMILES is read from it. * marks the point of attachment. Phe(4-amidino) = N=C(N)c1ccc(C[C@H](N)C(=O)O)cc1; Phe(4-Cl) = N[C@@H](Cc1ccc(Cl)cc1)C(=O)O; hArg = N=C(N)NCCCC[C@H](N)C(=O)O; Nle = CCCC[C@H](N)C(=O)O; Abu = CC[C@H](N)C(=O)O; PhAc = O=C(Cc1ccccc1)*
What was measured:
[1] = test system: H-69 human SCLC xenografts; assay: H-69 human SCLC xenografts in nude mice: tumor growth; type: in vivo; conditions: H-69
Protocol: Male nude mice were implanted s.c. with 3 mm^3 pieces of H-69 human SCLC tissue. When tumors reached a volume of approx. 80 mm^3 the mice were divided into 4 experimental groups of 7-8 animals each and received the following treatment for 4 weeks: group I (control), vehicle solution; group 2, Peptide 67 (10 μg/day s.c.); group 3, Peptide 31 (10 μg/day s.c.); group 4, Peptide 72 (10 μg/day s.c.). Tumor volumes were recorded twice a week. At the end of treatment, mice were anesthetized with isoflurane, killed by decapitation, and tumors were excised and weighed. Data are presented as means±S.E. Data were evaluated by one way ANOVA and the Student-Newman-Keuls test.

IGF-I [2] = assay: PC-3 xenografts, Experiment 1: serum IGF-I (RIA); type: in vivo, nude mice; conditions: 10 μg/day s.c., 28 days
Method in brief: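 Male nude mice bearing s.c. PC-3 prostate tumors (~50 mm^3) given single daily s.c. injections, 10 μg/day, for 28 days, sacrificed day 29. IGFs acid-ethanol extracted from serum or tumor cytosol, then measured by RIA against IGF-I or recombinant human IGF-II standards.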

mRNA for IGF-II = assay: DMS-153 human SCLC xenografts: expression of mRNA for IGF-II; type: in vivo, nude mice; conditions: 10 μg/day s.c., 6 weeks, control group 100±1.5%
Protocol: (§1) Male nude mice were implanted s.c. with 3 mm^3 pieces of DMS-153 human SCLC tissue. When tumors reached a volume of approx. 100 mm^3 the mice were divided into 3 experimental groups of 68 animals each and received the following treatment for 6 weeks group 1 (control), vehicle solution; group 2, Peptide 67 (10 μg/day s.c.); group 3, Peptide 31 (10 μg/day s.c.). Tumor volumes were recorded twice a week. At the end of treatment, mice were anesthetized with isoflurane, killed by decapitation, trunk blood was collected for measurement of serum IGF-I, and tumors were excised and weighed. Data are presented as means±S.E. Data were evaluated by one way ANOVA and the Student-Newman-Keuls test.

IGF-I [3] = assay: DMS-153 human SCLC xenografts: serum IGF-I; type: in vivo, nude mice; conditions: 10 μg/day s.c., 6 weeks
From the text: (§2) For the measurement of GH and IGF-I levels in the serum, as well as IGF-I and IGF-II concentrations in the cytosol fraction of tumors, blood samples and tumor samples were collected and processed as described (Braczkowski R, Schally A V, Plonowski A, Varga J L, Groot K, Krupa M, Armatis P, Cancer 95: 1735-1745, 2002), hereby incorporated by reference. Briefly, blood samples are centrifuged to separate the serum, tumors are homogenized and centrifuged to separate the cytosol fraction. Serum GH is then measured by the double-antibody RIA method. Before measurement by RIA, IGF-I and IGF-II are extracted from serum and cytosol fractions using an acid-ethanol cryoprecipitation method that eliminates most of the IGF binding proteins, which can interfere with the RIA. IGF-I concentration is measured by RIA using IGF-I as a standard and goat anti-IGF-I antibody (both from DSL Inc., Webster, Tex.). IGF-II concentration is measured by RIA using human recombinant IGF-II (Bachem) as a standard and anti-IGF-II monoclonal antibody (Amano International Enzyme, Troy, Va.).
as §1

IGF-II = assay: PC-3 xenografts, Experiment 1: tumor IGF-II (RIA); type: in vivo, nude mice; conditions: 10 μg/day s.c., 28 days
From the text: as §2
Male nude mice were implanted s.c. with 3 mm^3 pieces of PC-3 human hormone-independent prostate cancer tissue on both flanks. When tumors reached a volume of approx. 50 mm^3, the mice were divided into 5 experimental groups with 7 to 8 animals in each group and received single daily injections for 28 days as follows: 1. Control (vehicle solution); 2. JV-1-38 (10 μg/day s.c.); 3 Peptide 31 (10 μg/day s.c.); 4. Peptide 67 (10 μg/day s.c.); 5. Peptide 62 (10 μg/day s.c.). Tumor volumes were measured twice a week. The experiment was ended on day 29 by sacrificing the mice under Isoflurane anesthesia. Resulting tumors were cleaned, weighed, and snap-frozen until further analyses. Trunk blood was collected from the abdominal aorta and serum was separated for RIA measurement of IGF-I. Statistical analyses of the measurement results were done by two-tailed t-test; data are presented as the means±S.E.

With `CCCC[C@H](NC(=O)[C@@H](NC(=O)[C@H](CC(=O)O)NC(=O)[C@H](CCC(N)=O)NC(=O)[C@H](CC(C)C)NC(=O)[C@H](CC(C)C)NC(=O)[C@H](CCCCN)NC(=O)[C@H](CCCNC(=N)N)NC(=O)[C@H](C)NC(=O)[C@H](CO)NC(=O)[C@H](CC(C)C)NC(=O)[C@H](CCC(N)=O)NC(=O)[C@H](CC)NC(=O)[C@H](CC(C)C)NC(=O)[C@@H](NC(=O)[C@H](CCCCN)NC(=O)[C@H](CCCNC(=N)N)NC(=O)[C@H](Cc1ccc(OC)cc1)NC(=O)[C@H](Cc1ccc(C(=N)N)cc1)NC(=O)[C@H](CC(N)=O)NC(=O)[C@@H](NC(=O)[C@H](Cc1ccc(Cl)cc1)NC(=O)[C@@H](NC(=O)[C@H](C)NC(=O)[C@H](CC(=O)O)NC(=O)[C@@H](CCCNC(=N)N)NC(=O)[C@H](Cc1ccc(O)cc1)NC(=O)Cc1ccccc1)[C@@H](C)CC)[C@@H](C)O)C(C)C)[C@@H](C)CC)C(=O)N[C@H](CCCNC(=N)N)C(=O)N[C@@H](CCCCNC(=N)N)C(N)=O` [Peptide 67, [PhAc-Tyr^1, D-Arg^2, Phe(pCl)^6, Amp^9, Tyr(Me)^10, Abu^15, Nle^27, D-Arg^28, Har^29]hGH-RH(1-29)NH2] (PhAc-Y[dR]DAI[Phe(4-Cl)]TN[Phe(4-amidino)]Y(Me)RKVL[Abu]QLSARKLLQDI[Nle][dR][hArg]-NH2) the “Tumor volume (mm^3) Final” value ([1]; 10 μg/day s.c., 4 weeks) was 501 ± 35* mm^3, the “Tumor volume Final (% inhibition)” value ([1]; 10 μg/day s.c., 4 weeks, vs control) was “(76%)” and the “Tumor volume (mm^3) Initial” value ([1]; at start of treatment) was 82 ± 10 mm^3. The “Serum IGF-I” value (IGF-I [2]) was 128 ± 10.6 ng/mL, the “Serum IGF-I (% inhibition)” value (IGF-I [2]; vs control) was “(14%)” and the “level of expression of mRNA for IGF-II” value (mRNA for IGF-II) was 78.0±44.3%. The “Serum IGF-I” value (IGF-I [3]) was 117.9 ± 17.2 ng/mL, the “Serum IGF-I (% inhibition)” value (IGF-I [3]; vs control) was “(30%)” and the “Tumor IGF-II (pg/mg protein)” value (IGF-II) was 139 ± 69.2 pg/mg protein. For the same compound, the “Tumor IGF-II (% inhibition)” value (IGF-II; vs control) was “(37%)”.
